From article PMC8763920, “Unprotected peptide macrocyclization and stapling via a fluorine-thiol displacement reaction” (Nature Communications, 2022) come the findings set out here.

In general, EC50 refers to the concentration at which the effect is half-maximal.

Data set [1] concerns DLD-1 cells. The data set can be described thus: Cell viability assay for imaging studies, Axin analogues. The class given is cell-based. As to conditions: 10 µM, 12 h incubation, CellTiter-Glo. As for the experimental part: For Jurkat cells, after imaging studies with SAHBA analogues (5 µM, 4 h of incubation), viabilities were measured by mixing with the CellTiter-Glo reagent and the chemiluminescence signals were recorded and processed the same as metioned above. Similarly, confocal imaging of DLD-1 cells for the penetration pathway studies were followed by viability measurements. Cells treated with vehicle groups were also analysed and counted as the 100% control.

Data set [2] relates to β-catenin mediated transcription. The data set can be described thus: TOPFlash luciferase reporter assay. It is filed as cell-based. As to conditions: DLD-1 cells, 15 μM peptide, 24 h. As for the experimental part:
For evaluation of Axin peptide analogues, DLD-1 cells were cultured in 96-well flat bottom plates up to 70–80% confluency and were transfected with 200 ng M50 TOPFlash plasmid (a gift from Professor Raymond Habas, Temple Biology) and 50 ng pRL-TK plasmid (Promega). 12 h after transfection, cells were treated with DMSO vehicle or 15 μM of Axin peptide analogues for another 24 h. Luciferase activity was measured using the Dual-Glo luciferase assay kit (Promega) on a Biotek Synergy H1 plate reader using the Gen5 software. Data were processed as firefly: Renilla luciferase ratio for each control or treatment group, and were further normalized against the vehicle control group (100%) as the Relative Activities.

The next data set concerns HEK293 cells. The data set can be described thus: 5-day growth of HEK293 control cells. The class given is cell-based. As to conditions: 5 days, CellTiter Glo, up to 16 µM. As for the experimental part: (§1) For growth inhibition by Axin peptides, DLD-1 cells were cultured and maintained as mentioned before. Right before the assay, cells were resuspended in fresh RPMI media supplemented with 10% FBS, 100 IU/mL penicillin, and 100 µg/mL streptomycin, and plated onto 96-well white flat-bottom plates at 1000 cells per well (90 µL media/well). After overnight incubation, peptide samples were serially diluted as 10× stock in PBS buffer (10% DMSO), and were added to the plated cells at 10 µL stock solution/well in triplicate to make final treatment concentrations of 0, 0.0625, 0.125, 0.25, 0.5, 1, 2, 4, 8, 16 µM. […] The samples on the plates were incubated at 37 °C, 5% CO2 for 5 days, and the cell viability was evaluated by CellTiter Glo (Promega). The luminescence signals were recorded by the H1 synergy plate reader (Biotek) using the Gen5 software, and were normalized against the control groups (100%) for which cells were only treated with the vehicle (PBS/1% DMSO). Control HEK293 cells were cultured in DMEM media supplemented with 10% FBS, 1% penicillin/streptomycin at 37 °C, 5% CO2, then incubated with peptide samples and measured for viability in the same manner as mentioned above. […] After 24 h of incubation, the cell viabilities were measured and normalized against the vehicle control groups the same as mentioned above.
(In ATP-based viability assays light output follows the ATP content of the culture.)

Data set [3] concerns DLD-1 cells. The data set can be described thus: Time-dependent cytotoxicity/growth inhibition of Axin peptide analogues. The class given is cell-based. Conditions: 0, 5, 10, 15 µM; after 48 h of incubation; CellTiter Glo. As for the experimental part: as §1
In data set [4] the test system is DLD-1 cells. The data set can be described thus: 5-day growth inhibition of DLD-1 cancer cells. It is filed as cell-based. As to conditions: 5 days, CellTiter Glo, 1000 cells per well, n = 3; read-out: EC50, inhibition of DLD-1 cell growth. As for the experimental part: For growth inhibition by Axin peptides, DLD-1 cells were cultured and maintained as mentioned before. Right before the assay, cells were resuspended in fresh RPMI media supplemented with 10% FBS, 100 IU/mL penicillin, and 100 µg/mL streptomycin, and plated onto 96-well white flat-bottom plates at 1000 cells per well (90 µL media/well). After overnight incubation, peptide samples were serially diluted as 10× stock in PBS buffer (10% DMSO), and were added to the plated cells at 10 µL stock solution/well in triplicate to make final treatment concentrations of 0, 0.0625, 0.125, 0.25, 0.5, 1, 2, 4, 8, 16 µM. The wells on the edges of plates were filled with PBS buffer to avoid unwanted evaporation of samples. The samples on the plates were incubated at 37 °C, 5% CO2 for 5 days, and the cell viability was evaluated by CellTiter Glo (Promega). The luminescence signals were recorded by the H1 synergy plate reader (Biotek) using the Gen5 software, and were normalized against the control groups (100%) for which cells were only treated with the vehicle (PBS/1% DMSO). Control HEK293 cells were cultured in DMEM media supplemented with 10% FBS, 1% penicillin/streptomycin at 37 °C, 5% CO2, then incubated with peptide samples and measured for viability in the same manner as mentioned above. For Axin peptide analogues’ time-dependent cytotoxicity, peptide analogues were mixed with cells (1000 cells per well) at a final concentration of 0, 5, 10, and 15 µM. The cell viabilities were meaured via CellTiter Glo after incubation of 1 day, 2 days, and 4 days, respectively. […] After 24 h of incubation, the cell viabilities were measured and normalized against the vehicle control groups the same as mentioned above.

For another data set, the system named is HeLa cells. The data set can be described thus: Cell penetration of STAD peptides, confocal imaging. The class given is cell-based. As to conditions: 5 µM peptide, 2 h, confocal microscopy, 78 normalized as 1, mean ± SEM. As for the experimental part:
Hoechst 33342 dye and FITC-labelled peptides were excited with 405 and 488 nm lasers (Coherent OBIS), respectively. Images were analysed with NIH ImageJ software. Using the “analyse particles” function, we measured the area and intensity of individual cells (Supplementary Fig. 34a)[87]. […] However, from the distribution of data we found the best fit curve to be lognormal. Outliers were then removed using a Grubbs test (Supplementary Fig. 35b)[88]. We determined the optimal bin size for the histogram using the Freedman–Draconis rule[89]. The mean fluorescence intensity from each treatment group was calculated from n ≥ 100 cells. Error bars represented SE. P values were calculated by two sided Welch’s t test for comparison with internalization of RCM-stapled control peptides.
For FITC-labelled SAHBA analogues, 5 μM of each was incubated with Jurkat cells for 4 h[13]. The rest of the imaging procedures were done the same as mentioned above. Likewise, 5 µM of STAD peptides were incubated with HeLa cells for 2 h[71], followed by similar imaging studies; and 2 µM of p53 peptide analouges were mixed with HCT116 wt cells for 4 h before the imaging analysis of their cellular uptake. Cell samples treated with STAD or p53 series of peptide analogues were also simulatenously stained by propidium iodide (PI) to ensure the cell viability and membrane integrity.

The subject of data set [5] is p53 wild-type HCT-116 cells. It is filed as cell-based. Conditions: human.
The next data set is described as follows: circular dichroism. As to conditions: water; pH ns; 25 °C; 70 uM.
Data set [6] can be described thus: Circular dichroism, % alpha helicity. The class given is physicochemical. As to conditions: CD, 70 µM peptide, 25 °C, from MRE at 222 nm, three scans averaged; Axin and p53 peptides in water, HIV-targeting peptides in 25% acetonitrile/water. As for the experimental part:
The final concentration of the peptide samples was 70 µM. Circular dichroism (CD) measurements were performed on a Jasco model J-815 spectropolarimeter with a 1 mm Jasco quartz cell over the wavelength range of 180–250 nm. The scans were carried out at 0.2 nm resolution with 4 s average time at 25 °C. Data from three scans were averaged, base line corrected, and normalized to the mean residue ellipticity (MRE) following the equation: [θ]λ = [θ]obs/(10 × l × C × n). [θ]λ is MRE in deg × cm^2 × dmol^−1; [θ]obs is the measured ellipticity; C is the concentration of peptides in M; l is the optical pathlength in cm; and n is the number of residues in peptides. The % alpha helicity was calculated from the MRE values at 222 nm, using the equation % helicity = ([θ]222−[θ]0)/([θ]max−[θ]0) based on the previously reported method. [θ]222 is the MRE value at 222 nm; [θ]max is the maximum theoretical MRE value for a helix of n residues; and [θ]0 is the MRE value of the peptide in random coil conformation that usually equals to (2220-53T)[86].

Molecules are shown by their SMILES. *1 amine or outer side, *2 acyl side, *3 side chain or, on linkers, in order; H or OH if unused. Where a SMILES comes first, the peptide text is derived from it. Bridges are numbered along the chain shown (N, C = ends). [ ]: non-standard residue; d: D form. The star is where a group is joined. Benzene(1,3-(CH2SCH2CO)2) = O=C(CSCc1cccc(CSCC(=O)[*:2])c1)[*:1]; FITC = O=C1OC2(c3ccc(O)cc3Oc3cc(O)ccc32)c2ccc(NC(=S)*)cc21; Dap = NC[C@H](N)C(=O)O; βAla = NCCC(=O)O

As for `CC[C@H](C)[C@@H]1NC(=O)[C@@H](NC(=O)[C@H](CCC(N)=O)NC(=O)[C@@H]2CCCN2C(=O)[C@H](Cc2c[nH]c3ccccc23)NC(=O)[C@H](CCCNC(=N)N)NC(=O)COCCOCCNC(=S)Nc2ccc3c(c2)C(=O)OC32c3ccc(O)cc3Oc3cc(O)ccc32)CNC(=O)CSCc2cccc(c2)CSCC(=O)NC[C@H](C(=O)N[C@@H](Cc2c[nH]cn2)C(=O)N[C@H](C(=O)N[C@@H](CCCNC(=N)N)C(=O)N[C@@H](CCCNC(=N)N)C(=O)N[C@H](C(=O)N[C@@H](Cc2c[nH]c3ccccc23)C(=O)N[C@@H](CCCNC(=N)N)C(N)=O)C(C)C)C(C)C)NC(=O)[C@H](CC(=O)O)NC(=O)[C@H](CC(C)C)NC1=O` [compound 67], the “effect on viability of DLD-1 cells” value in the data set on DLD-1 cells [1] is “did not affect the viability”. For the same compound, the “inhibition of β-catenin mediated transcription (TOPFlash)” value in data set [2] was “strong inhibition”. For the same compound, the “effect on growth of HEK293 control cells” value in the data set with HEK293 cells was “little effects”. The “effects on DLD-1 cells over a time course of 24–96 h” value in the data set with DLD-1 cells [3] was “significant effects”. For the same compound, the EC50 with DLD-1 cells [4] came out at 9800 ± 2000 nM.

On to `CC[C@H](C)[C@@H]1NC(=O)[C@@H](NC(=O)[C@H](CC(=O)O)NC(=O)[C@H](C)NC(=O)[C@H](CC(C)C)NC(=O)[C@H](CCC(N)=O)NC(=O)[C@H](CCCCN)NC(=O)[C@H](C)NC(=O)[C@H](Cc2ccc(O)cc2)NC(=O)[C@H](CCCCN)NC(=O)[C@H](CCCCN)NC(=O)CCNC(=S)Nc2ccc3c(c2)C(=O)OC32c3ccc(O)cc3Oc3cc(O)ccc32)CNC(=O)CSCc2cccc(c2)CSCC(=O)NC[C@@H](C(=O)N[C@@H](C)C(=O)N[C@H](C(=O)N[C@@H](CCC(=O)O)C(N)=O)[C@@H](C)O)NC(=O)[C@H](CCCCN)NC(=O)[C@H]([C@@H](C)CC)NC1=O` [compound 75] ({FITC-βAla}-KKYAKQLAD[Dap]IIK[Dap]ATE-NH2; linker 10-14 via Benzene(1,3-(CH2SCH2CO)2)), for which the “mean intensity versus RCM stapled STAD 78” value with HeLa cells is given as 2.92 ± 0.08 fold.

In data set [5], `CC(=O)N[C@@H](CCC(N)=O)C(=O)N[C@@H](CO)C(=O)N[C@@H](CCC(N)=O)C(=O)N[C@@H](CCC(N)=O)C(=O)N[C@H](C(=O)N[C@@H](Cc1ccccc1)C(=O)N[C@H]1CNC(=O)CSCc2ccc(cc2)CSCC(=O)NC[C@@H](C(=O)N[C@@H](CCC(N)=O)C(=O)N[C@@H](CC(N)=O)C(N)=O)NC(=O)[C@H](CC(C)C)NC(=O)[C@H](CC(C)C)NC(=O)[C@H](CCCNC(=N)N)NC(=O)[C@H](Cc2c[nH]c3ccccc23)NC(=O)[C@H](CC(C)C)NC(=O)[C@H](CC(N)=O)NC1=O)[C@@H](C)O` [compound 82] gave an EC50 of 660 ± 190 nM. In the data set “circular dichroism”, the helicity was 61%.

In the case of `CC(=O)N[C@@H](CCC(N)=O)C(=O)N[C@@H](CO)C(=O)N[C@@H](CCC(N)=O)C(=O)N[C@@H](CCC(N)=O)C(=O)N[C@H](C(=O)N[C@@H](Cc1ccccc1)C(=O)N[C@H]1CNC(=O)CSCc2ccc(cc2)CSCC(=O)NC[C@H](C(=O)N[C@@H](CCC(N)=O)C(=O)N[C@@H](CC(N)=O)C(N)=O)NC(=O)[C@H](CC(C)C)NC(=O)[C@H](CC(C)C)NC(=O)[C@H](CCCNC(=N)N)NC(=O)[C@H](Cc2c[nH]c3ccccc23)NC(=O)[C@H](CC(C)C)NC(=O)[C@H](CC(N)=O)NC1=O)[C@@H](C)O` [compound 87], the “Helicity (%)” value in data set [6] is given as 64%. The compound further returned an EC50 in [5] of 710 ± 180 nM. The compound further showed a helicity in the data set “circular dichroism” of 64%.
